Blank lines part the entries; values can stand above or below the molecule they belong to. Activity calls are given as the source filed them. The rule behind the calls is not given here.
Key:
[1] = tested on: HeLa; assay: cells; details: Homo sapiens, 48 h
[2] = tested on: A2780; assay: cells; details: Homo sapiens, A2780, 48 h
[3] = cells; details: Homo sapiens, A2780AD, 48 h
[4] = tested on: HeLa; assay: cells; details: Homo sapiens, 48 h; remark: listed apart in the source
[5] = molecular target: Tubulin (Bos taurus, UniProt Q6B856+Q862L2+Q862F3); assay: Displacement of fluorescent probe (R)-(+)-ethyl 5-amino2-methyl-1,2-dihydro-3-phenylpyrido[3,4-b]pyrazin-7-ylcarbamate from calf brain tubulin colchicine binding site assessed as dissociation constant at 0.05 to 70 uM incubated for 30 mins by fluorescence based assay
[6] = tested on: A549; assay: cells; details: Homo sapiens, A549, 48 h
[7] = tested on: HeLa; assay: cells; details: Homo sapiens
Description: Antiproliferative activity against human HeLa cells assessed as inhibition of cell growth

[8] = tested on: HeLa; assay: cells; details: Homo sapiens; remark: listed apart in the source
Description: Antiproliferative activity against human HeLa cells expressing tubulin betaIII assessed as inhibition of cell growth

[9] = Antiproliferative activity against human A2780AD cells overexpressing P-gp assessed as inhibition of cell growth; format: functional, cell-based
[10] = tested on: A549; assay: cells; details: Homo sapiens
Description: Antiproliferative activity against human A549 cells assessed as inhibition of cell growth

[11] = molecular target: T1, Tubulin (Homo sapiens) (UniProt P68371+Q9H4B7+P0DPH7+P68366+Q13509+Q71U36+P04350+Q3ZCM7+P07437+P68363+Q9BQE3+Q6PEY2+Q13885+Q9BVA1+Q9BUF5)
[12] = molecular target: Tubulin; assay: Displacement of fluorescent probe (R)-(+)-ethyl 5-amino2-methyl-1,2-dihydro-3-phenylpyrido[3,4-b]pyrazin-7-ylcarbamate from tubulin colchicine binding site (unknown origin) assessed as dissociation constant; format: protein-complex assay, Homo sapiens
[13] = tested on: A2780; assay: Antiproliferative activity against human A2780 cells assessed as inhibition of cell growth; format: functional, cell-based
[14] = molecular target: T1, Tubulin (Homo sapiens); assay: Disruption of microtubule network in human A549 cells assessed as reduction in number and length of microtubules incubated for 24 hrs by immunofluorescence staining based epifluorescence microscopic analysis; format: cell-based
[15] = Toxicity in athymic nu/nu mouse xenografted with human NCI-H460 cells assessed as reduction in body weight at 2.5 mg/kg, iv measured on day 5; format: organism-based; set-up: scale not given: the % may be the effect or the level left; details: in vivo, 120 h, time 5 day
[16] = Toxicity in athymic nu/nu mouse xenografted with human NCI-H460 cells assessed as reduction in body weight at 2.5 mg/kg, iv measured on day 7; format: organism-based; set-up: scale not given: the % may be the effect or the level left; details: in vivo, 168 h, time 7 day
[17] = Toxicity in athymic nu/nu mouse xenografted with human NCI-H460 cells assessed as clinical signs of systemic toxicity at 2.5 mg/kg, iv administered once a week for 2 weeks; format: organism-based; details: in vivo, 336 h
[18] = molecular target: T1, Tubulin (Homo sapiens); assay: Disruption of microtubule network in human A549 cells assessed as appearance of aberrant chromosome distribution incubated for 24 hrs by immunofluorescence staining based epifluorescence microscopic analysis; format: cell-based
[19] = tested on: NCI-H460; assay: Antitumor activity against human NCI-H460 cells xenografted in athymic nu/nu mouse assessed as median tumor volume at 0.75 mg/kg, iv measured on day 7 by digital caliper based analysis; format: functional; details: time 7 day
[20] = tested on: NCI-H460; assay: Antitumor activity against human NCI-H460 cells xenografted in athymic nu/nu mouse assessed as reduction in tumor size at 1.1 to 2.5 mg/kg, iv administered once a week for 2 weeks by digital caliper based analysis; format: functional, organism-based; details: dose 1.1-2.5 mg/kg
[21] = Toxicity in athymic nu/nu mouse xenografted with human NCI-H460 cells assessed as reduction in body weight at 2.5 mg/kg, iv measured on day 2; format: organism-based; set-up: scale not given: the % may be the effect or the level left; details: in vivo, 48 h, time 2 day
[22] = tested on: NCI-H460; assay: Antitumor activity against human NCI-H460 cells xenografted in athymic nu/nu mouse assessed as median tumor volume at 2.5 mg/kg, iv measured on day 7 by digital caliper based analysis; format: functional; details: time 7 day
[23] = tested on: NCI-H460; assay: Antitumor activity against human NCI-H460 cells xenografted in athymic nu/nu mouse assessed as increase in apoptosis by measuring number of apoptotic nuclei in tumor at 2.5 mg/kg, iv administered once a week for 2 weeks and measured 24 hrs post last dose by Hoechst 33258 staining based fluorescence microscopic analysis (reference value: 1 +/- 0.1); format: functional; details: time 15 day
[24] = molecular target: T1, Tubulin (Homo sapiens); assay: Disruption of microtubule network in human A549 cells assessed as induction of cellular landscape at 1 nM incubated for 24 hrs by immunofluorescence staining based epifluorescence microscopic analysis; format: cell-based
[25] = tested on: NCI-H460; assay: Antitumor activity against human NCI-H460 cells xenografted in athymic nu/nu mouse assessed as mean survival time at 1.1 mg/kg, iv administered once a week for 2 weeks; format: functional
[26] = tested on: NCI-H460; assay: Antitumor activity against human NCI-H460 cells xenografted in athymic nu/nu mouse assessed as mean survival time at 1.7 mg/kg, iv administered once a week for 2 weeks; format: functional
[27] = tested on: NCI-H460; assay: Antitumor activity against human NCI-H460 cells xenografted in iv dosed athymic nu/nu mouse assessed as reduction in tumor volume administered once a week for 2 weeks and measured 2 to 3 times per week by digital caliper based analysis; format: functional, organism-based; details: dose 0.25-2.5 mg/kg
[28] = tested on: NCI-H460; assay: Antitumor activity against human NCI-H460 cells xenografted in athymic nu/nu mouse assessed as mean survival time at 0.75 mg/kg, iv administered once a week for 2 weeks; format: functional
[29] = tested on: NCI-H460; assay: Antitumor activity against human NCI-H460 cells xenografted in athymic nu/nu mouse assessed as median tumor volume at 1.1 mg/kg, iv measured on day 7 by digital caliper based analysis; format: functional; details: time 7 day
[30] = tested on: NCI-H460; assay: Antitumor activity against human NCI-H460 cells xenografted in athymic nu/nu mouse assessed as increase in survival time at 1.1 to 2.5 mg/kg, iv administered once a week for 2 weeks; format: functional, organism-based; details: dose 1.1-2.5 mg/kg
[31] = tested on: NCI-H460; assay: Antitumor activity against human NCI-H460 cells xenografted in athymic nu/nu mouse assessed as reduction in tumor size at 0.75 mg/kg, iv administered once a week for 2 weeks by digital caliper based analysis; format: functional, organism-based
[32] = tested on: NCI-H460; assay: Antitumor activity against human NCI-H460 cells xenografted in athymic nu/nu mouse assessed as increase in survival time at 0.75 mg/kg, iv administered once a week for 2 weeks; format: functional, organism-based
[33] = tested on: NCI-H460; assay: Antitumor activity against human NCI-H460 cells xenografted in athymic nu/nu mouse assessed as median tumor volume at 1.7 mg/kg, iv measured on day 7 by digital caliper based analysis; format: functional; details: time 7 day
[34] = molecular target: T1, Tubulin (Homo sapiens); assay: Disruption of microtubule network in human A549 cells assessed as appearance of cellular phenotype with hypercondensed chromatin incubated for 24 hrs by immunofluorescence staining based epifluorescence microscopic analysis; format: cell-based
[35] = molecular target: T2, Tubulin (Bos taurus) (UniProt Q6B856+Q862L2+Q862F3); assay: Inhibition of calf brain tubulin assembly measured upto 100 mins; details: dose 0.625-5 µM
[36] = tested on: NCI-H460; assay: Antitumor activity against human NCI-H460 cells xenografted in athymic nu/nu mouse assessed as mean survival time at 2.5 mg/kg, iv administered once a week for 2 weeks; format: functional
[37] = molecular target: T1, Tubulin (Homo sapiens); assay: Disruption of microtubule network in human A549 cells assessed as disorganization of tubulin cytoskeleton during interphase incubated for 24 hrs by immunofluorescence staining based epifluorescence microscopic analysis; format: cell-based
[38] = molecular target: T2, Tubulin (Bos taurus); assay: Displacement of 2-methoxy-5-(2,3,4-trimethoxyphenyl)-2,4,6-cycloheptatriene-1-one from calf brain tubulin colchicine site
[39] = molecular target: T1, Tubulin (Homo sapiens); assay: Disruption of microtubule network in human A549 cells assessed as reduction in mitotic spindle formation incubated for 24 hrs by immunofluorescence staining based epifluorescence microscopic analysis; format: cell-based
[40] = Inhibition of human recombinant alpha1beta3 tubulin expressed in Sf9 insect cells at 5 to 27.5 uM incubated for 70 mins by […]; details: dose 5-27.5 µM
[41] = molecular target: T2, Tubulin (Bos taurus); assay: Binding affinity to calf brain tubulin colchicine binding site assessed as Koff at 3 uM incubated for 30 mins by fluorescence based photon-counting instrument

SMILES: CCC[C@@H](NC(=O)[C@]1(C)CSC(/C(C)=N/O)=N1)c1cc(OC)cc(=O)o1
IC50 [1]: 19 nM
IC50 [2]: 22 nM
IC50 [3]: 54 nM
IC50 [4]: 28 nM
Kd [5]: 960 nM
IC50 [6]: 23 nM

SMILES: COc1cc2c(c(OC)c1OC)-c1ccc(OC)c(=O)cc1[C@@H](NC(C)=O)CC2 [COLCHICINE]
IC50 [7]: 11 nM
IC50 [8]: 19 nM
IC50 [9]: 537 nM
IC50 [10]: 49 nM

Ka [11]: 3 10^8/M
SMILES: COc1ccc(/C=C\c2cc(OC)c(OC)c(OC)c2)cc1O

SMILES: COc1cc([C@@H]2c3cc4c(cc3[C@H](O)[C@H]3COC(=O)[C@H]23)OCO4)cc(OC)c1OC [PODOFILOX]
IC50 [1]: 15.5 nM
IC50 [3]: 20 nM
IC50 [4]: 18 nM
IC50 [6]: 16 nM

Kd [12]: 3 nM
IC50 [13]: 23 nM
SMILES: COCc1cc2cccc(NC(C)=C3C(=O)CC(c4ccccc4)CC3=O)c2o1 (stereo not given)
IC50 [9]: 39 nM

SMILES: COc1cc2cc(c1Cl)N(C)C(=O)C[C@H](OC(=O)[C@H](C)N(C)C(C)=O)[C@]1(C)O[C@H]1[C@H](C)[C@@H]1C[C@@](O)(NC(=O)O1)[C@H](OC)/C=C/C=C(\C)C2 [MAYTANSINE]
IC50 [1]: 0.33 nM
IC50 [2]: 0.74 nM
IC50 [3]: 19 nM
IC50 [4]: 1.1 nM
IC50 [6]: 0.59 nM

IC50 [1]: 0.54 nM
IC50 [2]: 1.5 nM
IC50 [3]: 70 nM
IC50 [4]: 4.4 nM
IC50 [6]: 1.5 nM
SMILES: CC[C@]1(O)C[C@@H]2CN(CCc3c([nH]c4ccccc34)[C@@](C(=O)OC)(c3cc4c(cc3OC)N(C)[C@H]3[C@@](O)(C(=O)OC)[C@H](OC(C)=O)[C@]5(CC)C=CCN6CC[C@]43[C@@H]65)C2)C1 [VINBLASTINE]

SMILES: CCC[C@@H](NC(=O)[C@]1(C)CSC(/C(C)=N/O)=N1)c1cc(OCC2CC2)cc(=O)o1
Activity [14]: Active
Activity [15]: -4.5%
Activity [16]: -2.9%
Activity [17]: Non-Toxic
Activity [18]: Active
Activity [19]: 1395 mm3
Activity [20]: Active
Activity [21]: 11.2%
Activity [22]: 260.4 mm3
IC50 [1]: 1.6 nM
Activity [23]: 10
Activity [24]: Active
MST [25]: 16 days
MST [26]: 20 days
Activity [27]: Dose-Dependent Effect
IC50 [2]: 1.4 nM
MST [28]: 10.5 days
Activity [29]: 947.3 mm3
Activity [30]: Active
Activity [31]: inactive
Activity [32]: inactive
Activity [33]: 580 mm3
Activity [34]: Active
IC50 [3]: 3.2 nM
inhibition [35]: Dose-Dependent Effect
IC50 [4]: 1.3 nM
Kd [5]: 20 nM
MST [36]: 21 days
Activity [37]: Active
Activity [38]: 100%
Activity [39]: Active
IC50 [6]: 1.5 nM
inhibition [40]: Active

IC50 [1]: 1.1 nM
IC50 [3]: 392 nM
IC50 [4]: 20 nM
SMILES: CC(=O)O[C@H]1C(=O)[C@@]2(C)[C@H]([C@H](OC(=O)c3ccccc3)[C@]3(O)C[C@H](OC(=O)[C@H](O)[C@@H](NC(=O)c4ccccc4)c4ccccc4)C(C)=C1C3(C)C)[C@]1(OC(C)=O)CO[C@@H]1C[C@@H]2O [PACLITAXEL]

SMILES: COc1ccc(-c2ccc(OC)c(=O)cc2)c(OC)c1OC
K [41]: 6 s⁻¹
